Tested on: 254851-301-R-J1-PDC spheroids, viability % test/control
Assay: Anticancer human tumor 254851-301-R-J1-PDC patient-derived colon carcinoma cell line growth inhibition [TAK]
Conditions: spheroids with HUVEC and MSC; for IC50: curve of first compound; for viability, T/C: stronger effect = lower value
How it was run: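 Spheroids of 60% malignant cells, 25% HUVEC and 15% hMSC were exposed to targeted agents combined with TAK-243 or ipatasertib. Concentrations started at or near clinical Cmax (10 microM if unknown) and descended in half-log steps.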
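Note: spheroids exposed to drugs for seven days before viability readout.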
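Throughout, for viability, T/C: 100% = DMSO vehicle control viability.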

What does the source list for `CC(C)n1nc(-c2ccc3oc(N)nc3c2)c2c(N)ncnc21` + CC(C)NCC(C(=O)N1CCN(c2ncnc3c2C(C)CC3O)CC1)c1ccc(Cl)cc1?
IC50 (second compound 0.3 µM): 0.0419 µM; IC50 (second compound 0.949 µM): 0.0311 µM; IC50 (second compound 3 µM): 0.0444 µM; IC50 (second compound 9.49 µM): 0.0357 µM; IC50 (second compound 30 µM): 0.0248 µM; viability, T/C (second compound 0.3 µM, first compound 0.000316 µM): 119%; viability, T/C (second compound 0.3 µM, first compound 0.001 µM): 101%; viability, T/C (second compound 0.3 µM, first compound 0.00316 µM): 93.3%; viability, T/C (second compound 0.3 µM, first compound 0.01 µM): 78.4%; viability, T/C (second compound 0.3 µM, first compound 0.0316 µM): 54.3%; viability, T/C (second compound 0.3 µM, first compound 0.1 µM): 32.4%; viability, T/C (second compound 0.949 µM, first compound 0.000316 µM): 102%; viability, T/C (second compound 0.949 µM, first compound 0.001 µM): 101%; viability, T/C (second compound 0.949 µM, first compound 0.00316 µM): 94.7%; viability, T/C (second compound 0.949 µM, first compound 0.01 µM): 78.3%; viability, T/C (second compound 0.949 µM, first compound 0.0316 µM): 49.3%; viability, T/C (second compound 0.949 µM, first compound 0.1 µM): 33.6%; viability, T/C (second compound 3 µM, first compound 0.000316 µM): 100%; viability, T/C (second compound 3 µM, first compound 0.001 µM): 105%; viability, T/C (second compound 3 µM, first compound 0.00316 µM): 85.2%; viability, T/C (second compound 3 µM, first compound 0.01 µM): 72.7%; viability, T/C (second compound 3 µM, first compound 0.0316 µM): 57.5%; viability, T/C (second compound 3 µM, first compound 0.1 µM): 36.2%; viability, T/C (second compound 9.49 µM, first compound 0.000316 µM): 96.6%; viability, T/C (second compound 9.49 µM, first compound 0.001 µM): 109%; viability, T/C (second compound 9.49 µM, first compound 0.00316 µM): 90.8%; viability, T/C (second compound 9.49 µM, first compound 0.01 µM): 76.6%; viability, T/C (second compound 9.49 µM, first compound 0.0316 µM): 53%; viability, T/C (second compound 9.49 µM, first compound 0.1 µM): 31.9%; viability, T/C (second compound 30 µM, first compound 0.000316 µM): 88.1%; viability, T/C (second compound 30 µM, first compound 0.001 µM): 86.5%; viability, T/C (second compound 30 µM, first compound 0.00316 µM): 84.5%; viability, T/C (second compound 30 µM, first compound 0.01 µM): 69.6%; viability, T/C (second compound 30 µM, first compound 0.0316 µM): 44.9%; viability, T/C (second compound 30 µM, first compound 0.1 µM): 31.1%

What does the source list for `CCCS(=O)(=O)Nc1ccc(F)c(C(=O)c2c[nH]c3ncc(-c4ccc(Cl)cc4)cc23)c1F` + CC(C)NCC(C(=O)N1CCN(c2ncnc3c2C(C)CC3O)CC1)c1ccc(Cl)cc1?
IC50 (second compound 0.3 µM): > 100 µM; IC50 (second compound 0.949 µM): > 100 µM; IC50 (second compound 3 µM): > 100 µM; IC50 (second compound 9.49 µM): > 100 µM; IC50 (second compound 30 µM): > 100 µM; viability, T/C (second compound 0.3 µM, first compound 0.316 µM): 92.5%; viability, T/C (second compound 0.3 µM, first compound 1 µM): 90.3%; viability, T/C (second compound 0.3 µM, first compound 3.16 µM): 63.9%; viability, T/C (second compound 0.3 µM, first compound 10 µM): 68.4%; viability, T/C (second compound 0.3 µM, first compound 31.6 µM): 38.1%; viability, T/C (second compound 0.3 µM, first compound 100 µM): 85.7%; viability, T/C (second compound 0.949 µM, first compound 0.316 µM): 99.2%; viability, T/C (second compound 0.949 µM, first compound 1 µM): 95.1%; viability, T/C (second compound 0.949 µM, first compound 3.16 µM): 79.4%; viability, T/C (second compound 0.949 µM, first compound 10 µM): 64.8%; viability, T/C (second compound 0.949 µM, first compound 31.6 µM): 30.2%; viability, T/C (second compound 0.949 µM, first compound 100 µM): 76.8%; viability, T/C (second compound 3 µM, first compound 0.316 µM): 79.7%; viability, T/C (second compound 3 µM, first compound 1 µM): 88.8%; viability, T/C (second compound 3 µM, first compound 3.16 µM): 70.3%; viability, T/C (second compound 3 µM, first compound 10 µM): 67.9%; viability, T/C (second compound 3 µM, first compound 31.6 µM): 20.2%; viability, T/C (second compound 3 µM, first compound 100 µM): 82.5%; viability, T/C (second compound 9.49 µM, first compound 0.316 µM): 95.3%; viability, T/C (second compound 9.49 µM, first compound 1 µM): 85.3%; viability, T/C (second compound 9.49 µM, first compound 3.16 µM): 71%; viability, T/C (second compound 9.49 µM, first compound 10 µM): 51.5%; viability, T/C (second compound 9.49 µM, first compound 31.6 µM): 52.3%; viability, T/C (second compound 9.49 µM, first compound 100 µM): 83%; viability, T/C (second compound 30 µM, first compound 0.316 µM): 91.5%; viability, T/C (second compound 30 µM, first compound 1 µM): 92.8%; viability, T/C (second compound 30 µM, first compound 3.16 µM): 82.6%; viability, T/C (second compound 30 µM, first compound 10 µM): 51.8%; viability, T/C (second compound 30 µM, first compound 31.6 µM): 26.7%; viability, T/C (second compound 30 µM, first compound 100 µM): 80.7%
